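Interpolation was linear, between the two tested concentrations surrounding the appropriate level; five concentrations were tested over 48 hours in 96-well plates. Abbreviation: GI50, concentration required for 50% inhibition of growth.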 Calls of active or inactive are those of the source. No stated cut-off is given here; in the data, active = GI50 up to about 1.1 µM and inactive = higher.
Experiments:
Assay in all cases: NCI anticancer screen, dose series, 48 h
MOLT-4 = tested on: MOLT-4
Malme-3M = tested on: Malme-3M
A498 = tested on: A498
EKVX = tested on: EKVX
PC-3 = tested on: PC-3
NCI-H23 = tested on: NCI-H23
SK-MEL-28 = tested on: SK-MEL-28
OVCAR-4 = tested on: OVCAR-4
DU-145 = tested on: DU-145
SK-OV-3 = tested on: SK-OV-3
SN12C = tested on: SN12C
KM12 = tested on: KM12
HCT-15 = tested on: HCT-15
OVCAR-3 = tested on: OVCAR-3
SK-MEL-5 = tested on: SK-MEL-5
UO-31 = tested on: UO-31
COLO 205 = tested on: COLO 205
SW-620 = tested on: SW-620
MCF7 = tested on: MCF7
OVCAR-8 = tested on: OVCAR-8

[N-]=[N+]=CC(=O)OCCCCl
GI50 (MOLT-4): > 100 µM (inactive) | GI50 (Malme-3M): > 100 µM (inactive) | GI50 (A498): > 100 µM (inactive) | GI50 (EKVX): > 100 µM (inactive) | GI50 (PC-3): > 100 µM (inactive) | GI50 (NCI-H23): > 100 µM (inactive) | GI50 (SK-MEL-28): > 100 µM (inactive) | GI50 (OVCAR-4): > 100 µM (inactive) | GI50 (DU-145): > 100 µM (inactive) | GI50 (SK-OV-3): > 100 µM (inactive) | GI50 (SN12C): > 100 µM (inactive) | GI50 (KM12): > 100 µM (inactive) | GI50 (HCT-15): > 100 µM | GI50 (OVCAR-3): > 100 µM (inactive) | GI50 (SK-MEL-5): > 100 µM (inactive) | GI50 (UO-31): > 100 µM (inactive) | GI50 (COLO 205): > 100 µM (inactive) | GI50 (SW-620): > 100 µM (inactive) | GI50 (MCF7): > 100 µM (inactive)

O=C(O)c1ccccc1-c1ccccc1C(=O)Nc1ccc2c(c1)Cc1cc(F)ccc1-2
GI50 (MOLT-4): 26.7 µM (inactive) | GI50 (Malme-3M): 33.7 µM (inactive) | GI50 (A498): 19 µM (inactive) | GI50 (EKVX): 27.1 µM (inactive) | GI50 (PC-3): 26.4 µM (inactive) | GI50 (NCI-H23): 17.9 µM (inactive) | GI50 (SK-MEL-28): 37.8 µM (inactive) | GI50 (OVCAR-4): 25.9 µM (inactive) | GI50 (DU-145): 33.6 µM (inactive) | GI50 (SK-OV-3): 31.3 µM (inactive) | GI50 (SN12C): 12.3 µM (inactive) | GI50 (KM12): 24.5 µM (inactive) | GI50 (HCT-15): 17.6 µM | GI50 (OVCAR-3): 17.7 µM (inactive) | GI50 (SK-MEL-5): 19.5 µM (inactive) | GI50 (UO-31): 27.8 µM (inactive) | GI50 (COLO 205): 17.4 µM (inactive) | GI50 (SW-620): 33.7 µM (inactive) | GI50 (OVCAR-8): 35.2 µM (inactive) | GI50 (MCF7): 27.5 µM (inactive)

O=C1C=C(Br)c2c(-c3ccccc3)oc3cccc1c23
GI50 (MOLT-4): > 41.5 µM (inactive) | GI50 (Malme-3M): 72.3 µM (inactive) | GI50 (A498): > 75.7 µM (inactive) | GI50 (EKVX): 25.4 µM (inactive) | GI50 (PC-3): > 100 µM (inactive) | GI50 (NCI-H23): > 52.6 µM (inactive) | GI50 (SK-MEL-28): > 93.5 µM (inactive) | GI50 (OVCAR-4): 7.5 µM (inactive) | GI50 (DU-145): 31.6 µM (inactive) | GI50 (SK-OV-3): 54.1 µM (inactive) | GI50 (SN12C): > 88.1 µM (inactive) | GI50 (KM12): > 53 µM (inactive) | GI50 (HCT-15): > 45.7 µM | GI50 (OVCAR-3): > 57.1 µM (inactive) | GI50 (SK-MEL-5): 54.3 µM (inactive) | GI50 (UO-31): > 61.2 µM (inactive) | GI50 (COLO 205): > 63.1 µM (inactive) | GI50 (SW-620): > 100 µM (inactive) | GI50 (OVCAR-8): 58.2 µM (inactive) | GI50 (MCF7): 2.62 µM (inactive)

CNn1c(C)n[nH]c1=O
GI50 (MOLT-4): > 100 µM (inactive) | GI50 (Malme-3M): 96.8 µM (inactive) | GI50 (A498): > 100 µM (inactive) | GI50 (EKVX): > 100 µM (inactive) | GI50 (PC-3): > 100 µM (inactive) | GI50 (NCI-H23): > 100 µM (inactive) | GI50 (SK-MEL-28): > 100 µM (inactive) | GI50 (OVCAR-4): > 100 µM (inactive) | GI50 (DU-145): > 100 µM (inactive) | GI50 (SK-OV-3): > 100 µM (inactive) | GI50 (SN12C): > 100 µM (inactive) | GI50 (KM12): > 100 µM (inactive) | GI50 (HCT-15): > 100 µM | GI50 (OVCAR-3): > 100 µM (inactive) | GI50 (SK-MEL-5): > 100 µM (inactive) | GI50 (UO-31): > 100 µM (inactive) | GI50 (COLO 205): > 100 µM (inactive) | GI50 (SW-620): > 100 µM (inactive) | GI50 (OVCAR-8): > 100 µM (inactive) | GI50 (MCF7): > 100 µM (inactive)

CC(C)N1CCN(c2ccncc2S(=O)(=O)N2CCCCC2)CC1
GI50 (Malme-3M): > 100 µM (inactive) | GI50 (A498): > 100 µM (inactive) | GI50 (EKVX): > 100 µM (inactive) | GI50 (PC-3): > 100 µM (inactive) | GI50 (NCI-H23): > 100 µM (inactive) | GI50 (SK-MEL-28): > 100 µM (inactive) | GI50 (OVCAR-4): > 100 µM (inactive) | GI50 (DU-145): > 100 µM (inactive) | GI50 (SK-OV-3): > 100 µM (inactive) | GI50 (SN12C): > 100 µM (inactive) | GI50 (KM12): > 100 µM (inactive) | GI50 (HCT-15): > 100 µM | GI50 (OVCAR-3): > 100 µM (inactive) | GI50 (SK-MEL-5): > 100 µM (inactive) | GI50 (UO-31): > 100 µM (inactive) | GI50 (COLO 205): > 100 µM (inactive) | GI50 (SW-620): > 100 µM (inactive) | GI50 (OVCAR-8): > 100 µM (inactive) | GI50 (MCF7): > 100 µM (inactive)

COc1ccc2[nH]c3c(C)c4ccnc(NCCCN(C)CCCNc5ccc6ncn7c8ccccc8c(=O)c5c67)c4c(C)c3c2c1
GI50 (MOLT-4): 0.0043 µM (active) | GI50 (Malme-3M): 1.07 µM (active) | GI50 (A498): 1.11 µM (active) | GI50 (EKVX): 0.94 µM (active) | GI50 (PC-3): 0.752 µM (active) | GI50 (NCI-H23): 0.412 µM (active) | GI50 (SK-MEL-28): 0.671 µM (active) | GI50 (OVCAR-4): 0.106 µM (active) | GI50 (DU-145): 0.796 µM (active) | GI50 (SK-OV-3): 2.29 µM (inactive) | GI50 (SN12C): 0.0621 µM (active) | GI50 (KM12): 0.478 µM (active) | GI50 (HCT-15): 0.21 µM | GI50 (OVCAR-3): 1.87 µM (inactive) | GI50 (SK-MEL-5): 0.573 µM (active) | GI50 (UO-31): 0.361 µM (active) | GI50 (COLO 205): 0.272 µM (active) | GI50 (SW-620): 0.0418 µM (active) | GI50 (OVCAR-8): 0.348 µM (active) | GI50 (MCF7): 0.142 µM (active)

Nc1ccn(C2OC(COC(=O)C34CC5CC(CC(C5)C3)C4)C(O)C2O)c(=O)n1 (stereo not drawn)
GI50 (MOLT-4): 0.0679 µM (active) | GI50 (Malme-3M): > 100 µM (inactive) | GI50 (A498): > 45.5 µM (inactive) | GI50 (EKVX): > 100 µM (inactive) | GI50 (PC-3): > 100 µM (inactive) | GI50 (NCI-H23): 12.2 µM (inactive) | GI50 (SK-MEL-28): 52.4 µM (inactive) | GI50 (OVCAR-4): > 100 µM (inactive) | GI50 (DU-145): > 100 µM (inactive) | GI50 (SK-OV-3): > 79.8 µM (inactive) | GI50 (SN12C): > 100 µM (inactive) | GI50 (KM12): > 100 µM (inactive) | GI50 (HCT-15): > 70.6 µM | GI50 (OVCAR-3): > 100 µM (inactive) | GI50 (SK-MEL-5): > 100 µM (inactive) | GI50 (UO-31): > 40.5 µM (inactive) | GI50 (COLO 205): 59 µM (inactive) | GI50 (SW-620): > 100 µM (inactive) | GI50 (OVCAR-8): 24.2 µM (inactive) | GI50 (MCF7): 4.81 µM (inactive)
